{
  "source": "patent US12138236B2",
  "about": "“Compositions comprising N-Acetyl Methyl GABA and related methods” (MBI Distributing, priority 2020, dated 2024)",
  "key": {"[1]": {"assay": "Administration of N-Acetyl Methyl GABA to other human subjects, subject reports", "format": "in vivo", "protocol": "Subjects report more natural sleep without the morning grogginess associated with many sleep aids. Subjects report they slept all night long without waking. […] Subjects report the mind is clear and the attitude is positive after N-Acetyl Methyl GABA was administered prior to an overnight sleep period. Without being bound by theory, this may be due to anxiolytic effects of N-Acetyl Methyl GABA."}, "[2]": {"assay": "Single human subject's report on overnight sleep after self-administering N-Acetyl Methyl GABA (Example 2)", "format": "in vivo", "parameters": "key to Sleep Quality / Restfulness/Wakefulness / Mental Clarity/Memory / Mood / Anti-inflammatory Action (decrease in pain): 1: Very Poor; 2: Poor; 3: Fair; 4: Good; 5: Excellent", "protocol": "Table 2 reports a human subject's sleep quality, restfulness/wakefulness, mental clarity/memory, mood, and inflammation and pain reduction after 18 overnight sleep periods over the span of 15 weeks (October-January, as shown in Table 2), with 15 of the 18 nights occurring before the first administration of N-Acetyl Methyl GABA to the subject. Table 3 reports the subject's sleep quality and other parameters after self-administering 300 mg of N-Acetyl Methyl GABA before an overnight sleep period, 40 times over the span of 9 weeks (November-January, as shown in Table 3). Data in Tables 2 and 3 are based on a rating of sleep quality and other parameters from 1 to 5, where 1 is Very Poor, 2 is Poor, 3 is Fair, 4 is Good, and 5 is Excellent. Each morning after waking, the subject reported on the sleep quality, restfulness/wakefulness, mental clarity/memory, mood, and inflammation and pain reduction they felt, and/or with regard to sleep quality, used information from a “Sleep Cycle” app on a cell phone (Sleep Cycle, www.sleepcycle.com, Gothenburg, Sweden).\nFor 14 of the days reported in Table 2, before the first administration of N-Acetyl Methyl GABA, data is from a sleep app on a cell phone device. Other data in Table 2 is from the subject's experience as reported for a given sleep period. The data before first administration of N-Acetyl Methyl GABA provides a baseline of sleep patterns for the subject with no sleep aid. The average sleep quality in the subject before a first administration of N-Acetyl Methyl GABA was 73.8%. The average percentage of sleep quality improved after administration of N-Acetyl Methyl GABA according to this invention, with average sleep quality at 80.4%."}, "[3]": {"assay": "Daytime study of N-Acetyl Methyl GABA composition without melatonin, 19 subjects (Example 6)", "format": "in vivo, human", "details": "one value per patient (1-19), over baseline, 2 teaspoons (8 g) orally once daily, 14 days", "protocol": "The Purpose of this study was to quantify the effectiveness of N-Acetyl Methyl GABA on FAM MS (Fatigue, Anxiety, Mood, Mind, Stress) and related symptoms and qualities. (Mind refers to mental clarity, memory and focus).\nDue to the above-described effects of N-Acetyl Methyl GABA on sleep and relaxation, a sleep quality section was added to see how a “daytime” version of N-Acetyl Methyl GABA (administered without melatonin) assisted with sleep quality for daytime patients. This was also beneficial for patients that prefer not to take melatonin.\nStudy participants: 19 subjects\n7 day pre-study symptomology (no N-Acetyl Methyl GABA taken) to record a baseline of patient symptoms.\n14 day study symptomology (taking N-Acetyl Methyl GABA) to record patient symptoms.\nPreferred subject would have minimum two of the following symptoms prior to study: FAMMS (Fatigue, Anxiety, Mood, Mind, Stress) (Mind defines mental clarity, memory and focus issues), sleep imbalance, insomnia, daytime energy issues.\nSubjects were asked to not use any additional mind/body stress relief or natural supplements other than the N-Acetyl Methyl GABA composition (“GabaSorb® Daytime”) during the 14 day study.\nSubjects were asked to take 2 teaspoons of the liquid N-Acetyl Methyl GABA composition (Gabasorb Daytime) daily in the morning or early afternoon if they suffered from two or more symptoms listed in the protocol.\nThe N-Acetyl Methyl GABA composition described in Table 11 was taken orally by each patient once daily.\nSubjects were administered 2 teaspoons (8 g) of the liquid N-Acetyl Methyl GABA composition described above.\nRatings were made each day during the study period (7 days pre-administration, 14-days during N-Acetyl Methyl GABA administration), based on a scale of 1 to 5. Improvements are shown by increased ratings over baseline in qualities such as Stress, Anxiety, Mental Clarity and Memory, Mood, Daytime Energy, and Sleep Quality for each patient in Table 12. Patient gender and age for Table 12 are as follows: Patient 1 (P1)[…], P2[…], P3[…]; P4[…], P5[…], P6[…], P7[…], P8[…], P9[…], P10[…], P11[…], P12[…], P13[…], P14:M/22, P15:F/23, P16:M/50, P17:M/19, P18:F/44, P19:F27."}, "[4]": {"details": "average of 40 nights, scale 1 to 5, without: 2.2"}, "[5]": {"details": "daily rating 1 to 5 after overnight sleep, 300 mg before sleep, one subject"}, "[6]": {"details": "sum of 40 daily ratings, 300 mg"}},
  "note": "Several values for one entry are separate records, joined by “and”; a condition that tells them apart may be missing. Equal entries are not always repeated.",
  "data": [
    {"smiles": "COC(=O)CCCNC(C)=O", "note": "[N-Acetyl Methyl GABA]", "values": [
      {"measurement": "sleep quality, subjects' report", "setting": "[1]; administered prior to a sleep period", "value": "improved sleep quality"},
      {"measurement": "tolerability in other human subjects", "setting": "[1]; human, in vivo", "value": "well tolerated"},
      {"measurement": "side effects reported by the subject", "setting": "[2]; 300 mg before overnight sleep, 40 times over 9 weeks", "value": "No side effects"},
      {"measurement": "Inflammation/pain improved, percent of average score without", "setting": "[2]; 2.1/1.7*100%", "value": "about 125%"},
      {"measurement": "Mental clarity/memory improved, percent of average score without", "setting": "[2]; 2.2/2.2*100%", "value": 100, "unit": "%"},
      {"measurement": "Mood improved, percent of average score without", "setting": "[2]; 2.5/1.9*100%", "value": "about 132%"},
      {"measurement": "Sleep quality improved, percent of average score without", "setting": "[2]; 2.5/2.2*100%", "value": "approximately 115%"},
      {"measurement": "Restfulness/wakefulness improved, percent of average score without", "setting": "[2]; 2.6/2*100%", "value": 130, "unit": "%"},
      {"measurement": "average sleep quality (percentage)", "setting": "[2]; after administration, before first administration 73.8%, sleep app on cell phone", "value": 80.4, "unit": "%"},
      {"measurement": "morning or mid-afternoon anxiety, subject report", "setting": "[2]; after waking from the sleep periods", "value": "no longer feeling morning or mid-afternoon anxiety"},
      {"measurement": "Anti-inflammatory Action (decrease in pain), average score with N-Acetyl Methyl GABA", "setting": "[2]; average of 40 nights, scale 1 to 5, without: 1.7", "value": 3.8},
      {"measurement": "Mood, average score with N-Acetyl Methyl GABA", "setting": "[2]; average of 40 nights, scale 1 to 5, without: 1.9", "value": 4.4},
      {"measurement": "Restfulness/Wakefulness, average score with N-Acetyl Methyl GABA", "setting": "[2]; average of 40 nights, scale 1 to 5, without: 2", "value": 4.6},
      {"measurement": "Mental Clarity/Memory, average score with N-Acetyl Methyl GABA", "setting": "[2]; [4]", "value": 4.4},
      {"measurement": "Sleep Quality, average score with N-Acetyl Methyl GABA", "setting": "[2]; [4]", "value": 4.7},
      {"measurement": "Anti-inflammatory Action (decrease in pain)", "setting": "[2]; [5]", "value": "3 and 4 and 2 and 5"},
      {"measurement": "Mental Clarity/Memory", "setting": "[2]; [5]", "value": "3 and 4 and 5"},
      {"measurement": "Mood", "setting": "[2]; [5]", "value": "3 and 4 and 5"},
      {"measurement": "Restfulness/Wakefulness", "setting": "[2]; [5]", "value": "3 and 4 and 5"},
      {"measurement": "Sleep Quality", "setting": "[2]; daily rating 1 to 5 after overnight sleep, 300 mg self-administered before sleep, one subject", "value": "4 and 5"},
      {"measurement": "Anti-inflammatory Action (decrease in pain), Total Score, 40 days", "setting": "[2]; [6]", "value": 153},
      {"measurement": "Mental Clarity/Memory, Total Score, 40 days", "setting": "[2]; [6]", "value": 177},
      {"measurement": "Mood, Total Score, 40 days", "setting": "[2]; [6]", "value": 176},
      {"measurement": "Restfulness/Wakefulness, Total Score, 40 days", "setting": "[2]; [6]", "value": 183},
      {"measurement": "Sleep Quality, Total Score, 40 days", "setting": "[2]; [6]", "value": 190},
      {"measurement": "Anxiety Reduced (%)", "setting": "[3]", "value": "35% and 32% and 22% and 40% (2×) and 46% and 107% and 71% (2×) and 126% and 57% and 56% (2×) and 63% (3×) and 52% and 95% and 89%"},
      {"measurement": "Daytime Energy Improved (%)", "setting": "[3]", "value": "40% and 32% and 88% (2×) and 29% and 57% and 74% and 36% and 42% and 23% and 17% and 22% (2×) and 43% and 20% and 11% and 0% and 33% (2×)"},
      {"measurement": "Mental Clarity/Memory Improved (%)", "setting": "[3]", "value": "57% and 55% and 72% and 43% and 100% and 82% and 52% and 56% and 131% and 70% and 59% and 23% and 25% and 33% (2×) and 71% and 16% and 30% and 40%"},
      {"measurement": "Mood Improved (%)", "setting": "[3]", "value": "20% and 94% and 39% and 68% and 100% (4×) and 120% and 152% and 88% and 129% and 107% and 85% and 65% and 60% and 69% (2×) and 112%"},
      {"measurement": "Sleep Quality Improved (%)", "setting": "[3]", "value": "78% (2×) and 95% and 118% and 150% and 233% and 62% (2×) and 77% and 93% and 57% and 81% and 52% (3×) and 75% and 87% and 79% and 56%"},
      {"measurement": "Stress Reduced (%)", "setting": "[3]", "value": "48% and 45% and 36% (2×) and 33% and 72% and 17% and 25% and 40% (3×) and 78% and 69% and 27% and 56% and 85% and 41% and 52% and 55%"}
    ]}
  ]
}
